Laboratory results from PMC8790579, “Activity-Based Protein Profiling for the Identification of Novel Carbohydrate-Active Enzymes Involved in Xylan Degradation in the Hyperthermophilic Euryarchaeon Thermococcus sp. Strain 2319x1E” (Frontiers in Microbiology, 2022).

Columns and labels:
EGIDFPOO_00532 = tested on: T1, EGIDFPOO_00532; experiment: nitrophenol release, absorbance; type: biochemical, Thermococcus sp. 2319x1E; details: pH 8.0, 100°C; refolding buffer with 2 M urea, 10% sucrose
T1 construct: N-terminal 6xHis-tag, pET-28b(+) NheI/XhoI, E. coli Rosetta; primers encode N-term MLVFPDSFL and C-term KYGLPEL

EGIDFPOO_00674 = tested on: T2, EGIDFPOO_00674; experiment: nitrophenol release, absorbance; type: biochemical, Thermococcus sp. 2319x1E; details: pH 8.0 (50 mM Tris-HCl), 100°C
T2 construct: C-terminal 6xHis-tag, pET-28b(+) NcoI/EcoRI, E. coli Rosetta; Ni-IDA purified; primers encode N-term MGYQKFGYHFHA and C-term NGASIGPGF before HHHHHH; GH57 domain 52-300, predicted catalytic E153/D253

Km (EGIDFPOO_00532) | Km (EGIDFPOO_00674) | Compound
6.23 mM |  | O=[N+]([O-])c1ccccc1O[C@@H]1O[C@H](CO)[C@H](O)[C@H](O)[C@H]1O [ONPG]
 | 2.57 mM | CC(=O)Oc1ccc([N+](=O)[O-])cc1 [PNPA]
0.18 mM |  | O=[N+]([O-])c1ccc(O[C@@H]2O[C@H](CO)[C@@H](O)[C@H](O)[C@H]2O)cc1 [PNPG]
4.38 mM |  | O=[N+]([O-])c1ccc(O[C@@H]2OC[C@@H](O)[C@H](O)[C@H]2O)cc1 [PNPX]
